*1 amine or outer side, *2 acyl side, *3 side chain or, on linkers, in order; H or OH if unused. Where a SMILES comes first, the peptide text is derived from it. Bridges are numbered along the chain shown (N, C = ends). [ ]: non-standard residue; d: D form. The star is where a group is joined. X1 = COc1ccc(C2CCC(N[*:1])(C(=O)[*:2])CC2)cc1; Pentanoyl = CCCCC(=O)*

The record followed here is patent US20090042790A1, “TRANSMUCOSAL DELIVERY OF PEPTIDE DERIVATIVES” (NASTECH PHARMACEUTICAL COMPANY INC., priority 2005, published 2009).

The target in assay [1] is T1, melanocortin-1 (MC1 receptor) (Homo sapiens, UniProt Q01726).
T1 construct: expressed in transfected cells; host or cells: HEK293
The assay can be described thus: cAMP assay in HEK293 cells expressing the MC1 receptor. The format is cell-based. The following applies: 1×10^−11 to 1×10^−5 M, FIG. 2, read-out: effective concentration to reach a 50% response level (EC50), cAMP production. The procedure: FIG. 2: The degree of MC4 receptor specificity of the 2 kDa PEGylated MC4-RA and the unmodified MC4-RA was compared. The ability to stimulate cAMP production in cells in vitro was assayed; HEK293 cells expressed the melanocortin-1 (MC1 receptor). A measured increase in cAMP levels indicated a lack of MC4 receptor specificity. The 2 kDa PEGylated and unmodified MC4-RA were incubated in a concentration range of approximately 1×10^−11 to 1×10^−5 M with HEK293 cells that were expressing the MC1 receptor. The maximum quantity of cAMP was normalized to 100% or “% Max Response” and the concentration of 2 kDA PEGylated or unmodified MC4-RA was shown as the log of the Molar concentration. The effective concentration to achieve a 50% response (EC50) is shown.
The degree of MC4 receptor specificity of the 2 kDa PEGylated MC4-RA and the unmodified MC4-RA was compared. […] In this instance, a measured increase in cAMP levels would indicate a lack of MC4 receptor specificity. […] The experiment was performed in triplicate and cAMP levels were measured with the cAMP Tropix assay kit. The maximum quantity of cAMP was normalized to 100% or “% Max Response” and the concentration of 2 kDa PEGylated or unmodified MC4-RA is shown as the log of the Molar concentration.

Assay [2] deals with T2, melanocortin-4 cell receptor (MC4 receptor) (Homo sapiens, UniProt P32245).
T2 construct: expressed in transfected cells; host or cells: HEK293
Kind of assay: cAMP assay in HEK293 cells expressing the MC4 receptor. Conditions: 1×10^−11 to 1×10^−5 M, FIG. 1, read-out: effective concentration to reach a 50% response level (EC50), cAMP production. The format is cell-based. The procedure:
FIG. 1: The ability of the 2 kDa PEGylated MC4-RA and unmodified MC-4RA to stimulate cAMP production in cells expressing the melanocortin-4 cell receptor (MC4 receptor) was compared. HEK293 cells expressing the MC4 receptor were incubated with either the 2 kDa PEGylated MC4-RA or the unmodified MC4-RA. The concentrations used for either MC4-RA in the cAMP assay ranged from approximately 1×10^−11 to 1×10^−5 M. The maximum quantity of cAMP was normalized to 100% or “% Max Response” and the concentration of 2 kDA PEGylated or unmodified MC4-RA was shown as the log of the Molar concentration. The effective concentration to achieve a 50% response (EC50) is shown.
An ideal property of any therapeutic agent is target specificity as induction, for example, of unwanted cell surface receptors and/or cell signaling pathways may lead to deleterious outcomes in the patient subject. […]
Potency was measured as the ability of the 2 kDa PEGylated MC4-RA or the unmodified MC4-RA to stimulate cAMP production in cells expressing the melanocortin-4 cell receptor (MC4 receptor). […] The experiment was performed in triplicate and cAMP levels were measured with the cAMP Tropix assay kit. The maximum quantity of cAMP was normalized to 100% or “% Max Response” and the concentration of 2 kDa PEGylated or unmodified MC4-RA is shown as the log of the Molar concentration.

Assay [3] deals with male DOI mice (obesity mouse model system). The assay can be described thus: Cumulative food intake in male DOI mice. The format is in vivo. Conditions: high dose group (doses 1.25, 2.5, 5 mg/kg); 16 and 24 hours after dose administration; vs 30% PEG control; FIG. 3. The procedure: The effect of the low molecular weight PEGylated MC4-RA and unmodified MC4-RA on food intake was evaluated under regular light cycle in male DOI mice (obesity mouse model system). Control mice were administered a 30% PEG formulation. For the unmodified MC4-RA in vivo study, individual subjects categorized into three separate study groups, based on dosage levels, were administered 1.25 mg/kg, 2.5 mg/kg or 5 mg/kg of unmodified MC4-RA. For the 2 kDa PEGylated MC4-RA in vivo study, individual subjects categorized into three separate study groups, again based on dosage levels, were administered 5 mg/kg, 10 mg/kg and 20 mg/kg 2 kDa PEGylated MC4-RA. The effective does is higher for the PEGylated MC4-RA due to the tripled molecular weight resulting from the conjugation of a 2 kDa PEG to the MC4-RA molecule.

For assay [4], the system named is EpiAirway™ epithelial cell monolayer. The assay can be described thus: Transepithelial electrical resistance (TEER) of EpiAirway epithelial cell monolayer. The format is cell-based. Conditions: positive TEER control. As for the experimental part: The epithelial cells are grown on porous membrane-bottomed cell culture inserts at an air-liquid interface, which results in differentiation of the cells to a highly polarized morphology. The apical surface is ciliated with a microvillous ultrastructure and the epithelium produces mucus (the presence of mucin has been confirmed by immunoblotting). The inserts have a diameter of 0.875 cm, providing a surface area of 0.6 cm^2. The cells are plated onto the inserts at the factory approximately three weeks before shipping. One “kit” consists of 24 units.
These junctions confer a transepithelial resistance of several hundred ohms×cm^2 in excised airway tissues.

T1 sequence (Q01726 whole entry): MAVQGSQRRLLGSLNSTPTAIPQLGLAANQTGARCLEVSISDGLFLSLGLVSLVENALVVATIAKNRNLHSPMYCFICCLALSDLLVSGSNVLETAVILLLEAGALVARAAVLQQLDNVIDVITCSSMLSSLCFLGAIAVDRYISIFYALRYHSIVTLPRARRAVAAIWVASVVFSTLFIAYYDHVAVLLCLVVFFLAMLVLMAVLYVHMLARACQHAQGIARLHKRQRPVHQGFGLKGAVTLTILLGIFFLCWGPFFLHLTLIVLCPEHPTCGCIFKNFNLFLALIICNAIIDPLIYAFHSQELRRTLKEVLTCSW
T2 sequence (P32245 whole entry): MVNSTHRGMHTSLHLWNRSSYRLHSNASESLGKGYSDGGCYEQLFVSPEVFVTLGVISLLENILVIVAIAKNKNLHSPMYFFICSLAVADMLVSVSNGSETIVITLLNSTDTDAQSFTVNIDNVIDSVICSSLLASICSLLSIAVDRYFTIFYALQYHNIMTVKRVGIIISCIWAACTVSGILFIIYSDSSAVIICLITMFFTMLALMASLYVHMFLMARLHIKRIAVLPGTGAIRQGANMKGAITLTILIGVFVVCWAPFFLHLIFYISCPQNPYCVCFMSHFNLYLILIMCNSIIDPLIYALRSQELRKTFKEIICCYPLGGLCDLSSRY

For `CCCCC(=O)N[C@H]1CCC(=O)NCCCC[C@@H](C(N)=O)NC(=O)[C@H](Cc2c[nH]c3ccccc23)NC(=O)[C@H](CCCNC(=N)N)NC(=O)[C@@H](Cc2ccccc2)NC(=O)C2(CCC(c3ccc(OC)cc3)CC2)NC1=O` (some centres unmarked) [unmodified MC4-RA] (Pentanoyl-E[X1][dF]RWK-NH2; lactam 1-6), the EC50 in assay [1] was approximately 800 nM; in assay [2] it was 0.5 nM. For the same compound, the cumulative food intake result in assay [3] is “significant reduction on cumulative food intake”.
Consider “octylphenolpoly(ethyleneglycolether) [Triton X-100 ™]”, for which the “Average TEER Measurement” value in assay [4] (Table 3 formulation #11: 9% Triton X-100 only) is recorded as 1.5; in assay [4] (Table 5 formulation #17: 9% Triton X-100 only) it was 1.2.
